Data set [1] concerns pression artérielle carotidienne. In words: Hypotensive activity in anaesthetised rats (carotid arterial pressure). In kind it is in vivo, rats mâles de souche Sprague Dawley S.P.F. Conditions: rats anaesthetised with nembutal. On the procedure:
3) Déterminiation de l'activité hypotensive
L'activité hypotensive a été étudiée sur des rats mâles de souche Sprague Dawley S.P.F. pesant 300 g environ et anesthésiés au nembutal (50 mg/kg par voie intraveineuse).
Le produit testé a été administré par voie intraveineuse dans la veine jugulaire.
La pression artérielle carotidienne a été mesurée avant et après administration du produit testé.
Le tableau ci-après indique les variations exprimées en pourcentage de la pression artérielle, après administration du produit testé par rapport à la pression artérielle initiale ainsi que le temps pendant lequel se manifestent ces variations.

The subject of data set [2] is Hypothermie à l'apomorphine. In words: Antidepressant activity: apomorphine hypothermia. In kind it is in vivo, souris mâles. To be noted: Mus musculus, ip; intraperitoneal, before apomorphine hydrochloride 16 mg/kg intraperitoneal; rectal temperature; read-out: DE 50 (dose qui réduit de 50 % l'écart de température observé entre les témoins). On the procedure: (§1) 6) Détermination de l'activité antidénpressive
b) Hypothermie à l'apomorphine
Le test est effectué sur un lot de 10 souris mâles.
On induit chez les animaux une hypothermie par injection intrapéritonéale de 16 mg/kg de chlorhydrate d'apomorphine. Le composé testé est administré par voie intrapéritonéale 30 mm avant l'injection d'apomorphine; la température rectale des animaux est mesurée 30 mm après l'injection d'apomorphine.
Des animaux témoins reçoivent soit du soluté physiologique, soit de l'apomorphine; on mesure l'écart de température entre les témoins ayant reçu le soluté physiologique, les témoins ayant reçu l'apomorphine seule et les animaux ayant reçu l'apomorphine et le composé testé.
On appelle DE 50 la dose de composé qui réduit de 50 % l'écart de température observé entre les témoins, […]

Another data set concerns souris. Kind of data set: Acute toxicity, intraperitoneal, mouse. The class given is in vivo. Conditions: mortality recorded 48 hours after administration. The source says: 5) Etude de la toxicité aigüe
On évalue les doses létales 50 (DL 50) des produits après administration par voie intrapéritonéale chez la souris.
La mortalité est relevée quarante-huit heures après l'administration des produits.

Data set [3] concerns bronchospasme provoqué par l'histamine. Kind of data set: Action on histamine-induced bronchospasm in the guinea pig (Konzett and Rossler method). The class given is in vivo, cobaye. Conditions: 1µg/kg i.v. one minute before histamine (2 à 10µg/kg i.v.). On the procedure: -2) Action sur le bronchospasme provoqué par l'histamine chez le cobaye
Suivant la méthode de Konzett et Rossler Arch. exp. Path. Pharmakol. 195 71 (1940), de l'histamine est administrée à une dose variant de 2 à 10µg/kg i.v. selon la sensibilité de l'animal.
L'enregistrement de la pression produite par l'air expulsé est effectué à l'aide d'un microdynamomètre Apelab.
Le produit à tester est injecté en solution dans le sérum physiologique par voie i.v. une minute avant l'histamine.
On enregistre un éventuel effet du produit seul et son action antagoniste vis-à-vis de l'agent constricteur.
L'activité antagoniste est exprimée en pourcentage de protection par rapport au bronchospasme initial dû à l'histamine.

In data set [4] the test system is Hypothermie à la réserpine. In words: Antidepressant activity: reserpine hypothermia. The class given is in vivo, souris mâles. Conditions: 10 mg/kg I.P; reserpine 4 mg/kg intraperitoneal; rectal temperature measured for 5 hours. On the procedure: as §1
a) Hypothermie à la réserpine
Le test est effectué sur un lot de 10 souris mâles auxquelles on administre par voie intrapéritonéale 4 mg/kg de réserpine.
La température rectale des animaux est mesurée pendant 5 heures à l'aide d'un thermomètre électrique.

A further data set deals with trachée isolée de cobaye. Kind of data set: Action on isolated guinea pig trachea (carbachol-induced contractions). The class given is cell-based. To be noted: Cavia porcellus; product at 3.10^-6M; carbachol 0,4µ/ml; Krebs Henseleit solution, 37°C; read-out: antagonise les contractions provoquées par le carbachol. On the procedure:
1) Action sur la trachée isolée de cobaye
On prélève les trachées de cobaye que l'on vient de sacrifier par un coup sur la nuque, les trachées sont découpées en spirale et suspendues dans une solution de Krebs Henseleit, à la température de 37°C dans laquelle barbote un mélange de 95 % d'oxygène et 5 % de gaz carbonique.
On ajoute dans la solution du carbachol comme agoniste pour provoquer des contractions.
Le produit de l'exemple 1 à la concentration de 3.10^-6M, antagonise de 100 % les contractions provoquées par le carbachol à la concentration de 0,4µ/ml.

Structures can show the parent of a compound that is named as a salt. Some results are limits rather than exact numbers.

Consider `Oc1ccc(C(O)C2CCCN2)cc1O` (single isomer, unassigned) [Exemple 1, Oxalate acidede 4-[α-hydroxy(pyrrolidin-2-yl)méthyl]1,2-benzène diol (isomère A)], for which the “Variations % de la pression artérielle” value in data set [1] (1 mg/kg intravenous (jugular vein), relative to initial pressure) is -35%. In addition, the “Durée d'action” value in data set [1] (1 mg/kg intravenous) was >65 min. In data set [2], the ED50 came to 25 mg/kg. Moreover, in the data set on souris (listed as exemple 1, 2880 min), the “dose létale 50 (DL 50)” value is 250 mg/kg. For the same molecule, the “inhibition de la broncho constriction à l'histamine (pourcentage de protection par rapport au bronchospasme initial)” value in data set [3] (listed as exemple 1) was found to be 52%. Moreover, the “apparition de l'hypothermie provoquée par la réserpine” value in data set [4] was “retarde l'apparition de l'hypothermie provoquée par la réserpine”. The inhibition at 3 µM in the data set on trachée isolée de cobaye turned out to be 100%.

In the case of `Oc1ccc(C(O)C2CCCN2)cc1O` (single isomer, unassigned) [Exemple 3, Chlorhydrate du 4-/α-hydroxy(pyrrolidin-2-yl) méthyl/1,2-benzène diol (isomère B)], the “dose létale 50 (DL 50)” value in the data set on souris (listed as exemple 3, 2880 min) worked out at 40 mg/kg. In data set [3] (listed as exemple 3), the “inhibition de la broncho constriction à l'histamine (pourcentage de protection par rapport au bronchospasme initial)” value was 17%.

(Values after patent publication EP0022408A1, “Derivatives of alpha-phenyl-2-pyrrolidine methanol and their salts, process for their preparation, use as medicines and compositions containing them” (ROUSSEL-UCLAF, priority 1979, dated 1981).)
